Series [1] concerns SARS-CoV-2. Kind of series: microbe, parasite or virus in culture. It counts as cell-based, SARS-CoV-2 (hCoV-19/Russia/Moscow-PMVL-12/2020 strain). Conditions: for log reduction at 20 µM: Severe acute respiratory syndrome coronavirus 2, Vero C1008, measured at 20 µM, Vero E6, vs DMSO-treated control, read-out: Δlog10(TCID50) SARS-CoV-2.
In series [2] the test system is Influenza A/California/7/2009 (H1N1)pdm09. Kind of series: organism not typed. It counts as cell-based, Influenza virus. Conditions: for IC50: read-out: IC50 ± SD Influenza Virus; for log reduction at 50 µM: read-out: Δlog10(TCID50) Influenza Virus.
Series [3] has as its system MDCK cells. Conditions: concentration decreasing cell number by 50%.
The test system of series [4] is SARS-CoV-2. Put plainly: microbe, parasite or virus in culture. It counts as cell-based, SARS-CoV-2 (hCoV-19/Russia/Moscow-PMVL-12/2020 strain).
The target of series [5] is SARS-CoV-2 RdRp holoenzyme (nsp12, nsp7, nsp8) (Severe acute respiratory syndrome coronavirus 2, UniProt P0DTD1). Kind of series: biochemical. It is filed as biochemical.
For series [6], the system named is Vero E6 cells. Conditions: African green monkey (Chlorocebus aethiops).
Series [7] relates to SARS-CoV-2 PIK35 strain. Details: method as in PMID 35127150. Conditions: Vero cells, read-out: EC50, inhibition of the reproduction of SARS-CoV-2; cited from earlier work.
The target in series [8] is T1, SARS-CoV-2 RdRp (Severe acute respiratory syndrome coronavirus 2, UniProt P0DTD1). Put plainly: Electrophoretic mobility shift assay of RNA binding by RdRp. Conditions: 1 mM inhibitor incubated with RdRp before RNA substrate.
Series [9] deals with T1, SARS-CoV-2 RdRp. Also noted: method as in PMID 33674802. Conditions: interferes with template and primer RNA binding; cited from earlier work.

Where two headings read alike, the source gives them in different places.

Take `CCCCCc1ccc(-c2cc3cn(C4C=CC(O)C4)c(=O)nc3[nH]2)cc1` (stereo not shown) [Compound 1, 1-(4’-hydroxy-2’-cyclopenten-1-yl)-6-(4-pentylphenyl)-3H-pyrrolo [2,3-d]-pyrimidine-2-one]: the log reduction at 20 µM in [1] turned out to be 1. Besides, the “Decrease of the TCID50 value” in [1] (summary of Table 1) is reported as ~ 10 fold. For the same molecule, the IC50 is above 50 µM in series [2] (MDCK); 44 ± 2 µM in [5] (RdRp pre-incubated with inhibitor, then RNA substrate and ATP added, read-out: IC50 for inhibition of RdRp activity (RNA extension)). Besides, in [2] (MDCK cells), the log reduction at 50 µM was 0. In series [3], the “CD50 ± SD MDCK” value turned out to be 89 ± 12 µM. Further, in [4] (Severe acute respiratory syndrome coronavirus 2, Vero C1008, 96 h, measured at 10 µM (footnote *), Vero E6, vs DMSO, read-out: Δlog10(RNA), logarithmic change in the SARS-CoV-2 RNA levels), the log reduction at 10 µM worked out at 1.5. Besides, the “Decrease of the amount of viral RNA” value in series [4] (summary of Table 1) is above 10 fold. The “Inhibition of RNA extension by RdRp” value in series [5] (1 mM inhibitor pre-incubated with RdRp before RNA substrate (Figure 3A)) was “completely blocked RNA synthesis”. In addition, the “CD50 ± SD Vero E6” value in [6] was 153 ± 5 µM. Also, the EC50 in [7] was 21 µM. Moreover, in series [8], the “Inhibition of RNA binding by RdRp, EMSA” value is reported as “fully prevented RNA binding”.

With `CC(C)(C)c1ccc(-c2cc3cn(C4C=CC(O)C4)c(=O)nc3[nH]2)cc1` (stereo not shown) [Compound 2, 1-(4’-hydroxy-2’-cyclopenten-1-yl)-6-(4-tert-butylphenyl)-3H-pyrrolo [2,3-d]-pyrimidine-2-one], the log reduction at 20 µM in series [1] came out at 0.5. Besides, the IC50 in series [2] (MDCK) was around 1 µM; in series [2] it was 1.37 ± 0.28 µM. The log reduction at 50 µM in [2] (MDCK cells) was 1.5; in [4] (Severe acute respiratory syndrome coronavirus 2, Vero C1008, 96 h, read-out: Δlog10(RNA), logarithmic change in the SARS-CoV-2 RNA levels), 0.3. Also, the “SI (selectivity index), the ratio of CD50 to IC50” value in series [2] (influenza virus, MDCK cells) worked out at 49.60. In addition, the “CD50 ± SD MDCK” value in [3] was 68 ± 5 µM. Further, the “CD50 ± SD Vero E6” value in [6] is 150 ± 15 µM. Also, in series [7], the concentration giving a half-maximal response (EC50) is 53 µM.

In the case of `Cc1ccc(C(=O)Nc2ccc(S(=O)(=O)O)c3cc(S(=O)(=O)O)cc(S(=O)(=O)O)c23)cc1NC(=O)c1cccc(NC(=O)Nc2cccc(C(=O)Nc3cc(C(=O)Nc4ccc(S(=O)(=O)O)c5cc(S(=O)(=O)O)cc(S(=O)(=O)O)c45)ccc3C)c2)c1` [suramin], in series [9], the “Affinity of interaction with RdRp” value is listed as “micromolar affinity”.

(Values after article PMC9959748, “Nucleoside Analogs That Inhibit SARS-CoV-2 Replication by Blocking Interaction of Virus Polymerase with RNA” (International Journal of Molecular Sciences, 2023).)
